Laboratory results as given in article PMC4831212 (The Biochemical journal, 2013).

Columns and labels:
Test in all cases: FRET lipid mixing of SNARE liposomes
Format in all cases: biochemical
Details in all cases: 37°C; 10 µM polyphenol (as in Figure 2)
SNAP-23/Syn4/VAMP8 = molecular target: T1, SNAP-23/Syn4/VAMP8 (Rattus norvegicus, UniProt O70377+Q08850+Q9WUF4)
T1 sequence (O70377 1-210): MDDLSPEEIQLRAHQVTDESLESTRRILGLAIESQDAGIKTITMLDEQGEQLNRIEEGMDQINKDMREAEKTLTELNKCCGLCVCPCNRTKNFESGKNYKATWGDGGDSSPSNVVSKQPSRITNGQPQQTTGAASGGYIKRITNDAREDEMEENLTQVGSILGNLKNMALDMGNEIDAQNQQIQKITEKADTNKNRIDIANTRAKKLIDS
T1 sequence (Q08850 1-298): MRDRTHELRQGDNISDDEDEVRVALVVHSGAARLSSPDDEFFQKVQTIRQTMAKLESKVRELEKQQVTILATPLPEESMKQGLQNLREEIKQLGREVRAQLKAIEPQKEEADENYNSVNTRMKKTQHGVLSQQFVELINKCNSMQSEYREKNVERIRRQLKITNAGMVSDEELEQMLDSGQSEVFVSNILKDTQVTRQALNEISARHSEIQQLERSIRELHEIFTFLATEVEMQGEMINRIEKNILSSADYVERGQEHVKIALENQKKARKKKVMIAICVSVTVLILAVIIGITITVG
T1 sequence (Q9WUF4 1-100): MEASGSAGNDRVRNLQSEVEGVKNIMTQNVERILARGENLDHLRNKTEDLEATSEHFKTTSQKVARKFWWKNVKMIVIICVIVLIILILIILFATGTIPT

SNAP-23/Syn4/VAMP2 [1] = molecular target: T2, SNAP-23/Syn4/VAMP2 (Rattus norvegicus, UniProt O70377+P63045+Q08850)
T2 sequence (P63045 2-116, one chain of several): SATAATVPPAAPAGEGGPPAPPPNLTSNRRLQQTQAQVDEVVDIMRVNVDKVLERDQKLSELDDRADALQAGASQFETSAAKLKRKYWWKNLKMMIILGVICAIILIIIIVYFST

SNAP-23/Syn4/VAMP2 [2] = molecular target: T2, SNAP-23/Syn4/VAMP2; remark: listed apart in the source

Q: With `O=c1cc(-c2ccc(O)cc2)oc2cc(O)cc(O)c12` [AP, apigenin] as the molecule, how does the “% inhibition” value (SNAP-23/Syn4/VAMP8) read?
A: ~ 90%

Q: And the “% inhibition” value (SNAP-23/Syn4/VAMP2 [1])?
A: ~ 40%

Q: How did the “% inhibition” value (SNAP-23/Syn4/VAMP8) turn out when `O=c1c(O)c(-c2cc(O)c(O)c(O)c2)oc2cc(O)cc(O)c12` [MR, myricetin] was run?
A: 75-90%

Q: What about the “% inhibition” value (SNAP-23/Syn4/VAMP2 [1]) of the same molecule?
A: 75-90%

Q: `O=C(O)/C=C/c1ccccc1` [TC, trans-cinnamic acid] was tested. Which “% inhibition” value (SNAP-23/Syn4/VAMP2 [2]) did it give?
A: these polyphenols robustly inhibited SNAP-23/Syn4/VAMP2- driven fusion

Q: With `Oc1cc(O)c2cc(O)c(-c3cc(O)c(O)c(O)c3)[o+]c2c1` [DL, delphinidin] as the molecule, how does the “% inhibition” value (SNAP-23/Syn4/VAMP8) read?
A: ~ 60%

Q: How did the “% inhibition” value (SNAP-23/Syn4/VAMP2 [2]) turn out when `COc1cc2c(c(OC)c1OC)-c1c(cc3c(c1OC)OCO3)CC(C)C(C)C2` (centres unmarked) [GN, gomisin N] was run?
A: these polyphenols robustly inhibited SNAP-23/Syn4/VAMP2- driven fusion

Q: For `C[C@@H]1O[C@@H](OC[C@H]2O[C@@H](Oc3c(-c4ccc(O)c(O)c4)oc4cc(O)cc(O)c4c3=O)[C@H](O)[C@@H](O)[C@@H]2O)[C@H](O)[C@H](O)[C@H]1O` [RT, rutin], which “% inhibition” value (SNAP-23/Syn4/VAMP2 [2]) is on record?
A: did not inhibit SNAP-23/Syn4/VAMP8- driven fusion, but did inhibit SNAP-23/Syn4/VAMP2-driven fusion
